In US20260248799A1, “COMBINATIONS OF RETINALDEHYDE DEHYDROGENASE 1 (RALDH1) INHIBITORS AND IMMUNOSTIMULATORS AND METHODS USING SAME” (The Trustees of the University of Pennsylvania, priority 2023, published 2026):
“Also recorded” adds a separate entry of the source.

Experiments:
Monoamine Oxidase MAO-A = molecular target: T1, Monoamine Oxidase MAO-A (Homo sapiens, UniProt P21397); experiment: Safetyscreen: MAO-A; type: biochemical; conditions: read-out: % Inh. Monoamine Oxidase MAO-A
T1 construct: Eurofins Cerep Panlabs (contract panel)

[1] = molecular target: T2, Leukotriene, Cysteinyl CysLT1 (Homo sapiens, UniProt Q9Y271); experiment: Safetyscreen: CysLT1; type: binding; conditions: read-out: % Inh. Leukotriene, Cysteinyl CysLT1
T2 construct: purchased Eurofins Cereps Panlabs

Nicotinic Acetylcholine = experiment: Safetyscreen: Nicotinic Acetylcholine; type: binding, human; conditions: 10 μM
[2] = test system: murine HCC cell line (Hepa1-6); experiment: AldeRed assay in Hepa1-6 cells; type: cell-based, mouse; conditions: murine HCC cell line Hepa1-6, 24 hours
Protocol: Cultures of tumor cells or primary monocyte-derived cells were treated with C86, C91, C99, BMS 493 (Tocris, 3509) or Win 18446 (Tocris, 4736) at a time and concentration indicated in corresponding figure legends.
The AldeRed assay (EMD Millipore) was performed according to manufacturer's instructions to identify cells with ALDH activity. In brief, single-cell suspensions of Huh7, Huh1, SNU449, SNU398, HEP3B, PLC, Hepa 1-6, Hep55, and AL458A cultured cells or single-cell suspension generated from enzymatic digestion of tumors generated from transplantation of these cells in mice (as indicated in figure legends) were incubated with a fluorescent and non-toxic ALDH substrate (AldeRed 588-A); the fluorescent product accumulates in cells proportional to their ALDH activity. The amount of fluorescence produced is measured by flow cytometry. The ALDH inhibitor diethylaminobenzaldehyde (DEAB, provided with the AldeRed assay kit) was used as a negative control for background fluorescence assessment.

[3] = molecular target: T3, Serotonin (5-Hydroxytryptamine) 5-HT2A (Homo sapiens, UniProt P28223); experiment: Safetyscreen: 5-HT2A; type: binding; conditions: read-out: % Inh. Serotonin (5-Hydroxytryptamine) 5-HT2A
T3 construct: Eurofins Cereps Panlabs (contract panel)
T3 sequence (P28223 whole entry): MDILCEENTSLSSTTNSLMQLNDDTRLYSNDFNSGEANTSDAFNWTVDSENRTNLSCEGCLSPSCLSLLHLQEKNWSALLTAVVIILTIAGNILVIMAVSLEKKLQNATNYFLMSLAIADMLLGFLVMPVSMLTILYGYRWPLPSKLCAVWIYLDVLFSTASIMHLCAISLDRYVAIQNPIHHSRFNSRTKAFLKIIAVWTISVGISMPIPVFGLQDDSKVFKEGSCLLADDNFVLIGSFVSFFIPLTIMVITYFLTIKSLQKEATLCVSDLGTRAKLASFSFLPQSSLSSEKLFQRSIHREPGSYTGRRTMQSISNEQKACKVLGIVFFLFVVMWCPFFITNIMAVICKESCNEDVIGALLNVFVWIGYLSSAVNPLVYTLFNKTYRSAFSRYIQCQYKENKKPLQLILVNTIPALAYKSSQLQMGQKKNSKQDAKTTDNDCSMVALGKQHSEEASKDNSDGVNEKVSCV

T2 sequence (Q9Y271 whole entry): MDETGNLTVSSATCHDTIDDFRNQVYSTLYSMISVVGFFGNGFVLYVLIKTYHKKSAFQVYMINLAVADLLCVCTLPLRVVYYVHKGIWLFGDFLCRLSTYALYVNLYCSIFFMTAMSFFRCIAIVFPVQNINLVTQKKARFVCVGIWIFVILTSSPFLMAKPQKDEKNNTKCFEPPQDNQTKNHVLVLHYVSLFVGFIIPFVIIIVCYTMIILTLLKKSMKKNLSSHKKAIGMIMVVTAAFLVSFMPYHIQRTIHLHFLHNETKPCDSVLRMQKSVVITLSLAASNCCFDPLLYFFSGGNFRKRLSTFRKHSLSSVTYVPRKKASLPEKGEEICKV
T1 sequence (P21397 whole entry): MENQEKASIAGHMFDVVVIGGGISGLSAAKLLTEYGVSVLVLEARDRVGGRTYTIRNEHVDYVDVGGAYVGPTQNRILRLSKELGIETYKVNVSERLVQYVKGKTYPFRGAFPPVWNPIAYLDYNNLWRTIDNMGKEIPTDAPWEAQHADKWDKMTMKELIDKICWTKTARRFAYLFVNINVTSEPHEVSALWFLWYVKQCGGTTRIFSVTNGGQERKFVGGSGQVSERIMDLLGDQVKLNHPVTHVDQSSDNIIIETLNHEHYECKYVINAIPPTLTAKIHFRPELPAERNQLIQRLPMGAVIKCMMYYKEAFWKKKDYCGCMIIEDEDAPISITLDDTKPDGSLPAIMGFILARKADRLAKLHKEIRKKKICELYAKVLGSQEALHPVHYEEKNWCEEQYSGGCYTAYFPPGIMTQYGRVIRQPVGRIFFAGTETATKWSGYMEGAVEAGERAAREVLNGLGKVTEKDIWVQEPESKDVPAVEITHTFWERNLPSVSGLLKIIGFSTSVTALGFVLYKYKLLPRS

## CS(=O)(=O)N1CCN(C(=O)c2cnc3ccc(F)cc3c2N2CCC(C#N)(c3ccccc3)CC2)CC1 [Compound C-86, 1-(6-fluoro-3-(4-(methylsulfonyl)piperazine-1-carbonyl)quinolin-4-yl)-4-phenylpiperidine-4-carbonitrile]
Monoamine Oxidase MAO-A
  inhibition at 10 µM: 2%
[1]
  inhibition at 10 µM: 5%
Nicotinic Acetylcholine
  % Inh. Nicotinic Acetylcholine: 5%
[2]
  AldeRed fluorescence: no change in AldeRed fluorescence; also recorded: failed to reduce AldeRed fluorescence
[3]
  inhibition at 10 µM: 36%
